Results as given in paper PMC2841397 (Xenobiotica; the fate of foreign compounds in biological …, 2010).
Several values for one entry are separate records, joined by “and”; a condition that tells them apart may be missing. Equal values may be shown once. Read-outs that look alike come from different tables or passages of the source.

How the values were obtained:
isolated rat hepatocytes = conditions: ref Koster et al. 1986, cited from earlier work
isolated rat enterocytes = conditions: ref Koster et al. 1986, cited from earlier work
[1] = racemic-Fen 2 mg kg^-1 intravenous, male Wistar rats; ref Koster et al. 1985; cited from earlier work
[2] = rat; ref Koster et al. 1985, 1986; Hildebrandt et al. 1994; cited from earlier work
cardiomyocytes = conditions: ref Beigi et al. 2006, Jóźwiak et al. 2007, cited from earlier work; for maximum contractile response: cardiomyocyte model, Woo et al. 2009
[3] = Urinary excretion after intravenous administration to rats; assay type: in vivo, rat
[4] = Urinary excretion after oral administration to rats; assay type: in vivo, rat
[5] = not given; remark: listed apart in the source
[6] = Mean (CV%)
[7] = test system: β2-AR coupled GS signaling; conditions: ref Woo et al. 2009; cited from earlier work
[8] = intravenous 5 mg kg^-1, n=5, mean
[9] = model parameter, iv 5 and oral 25 mg kg^-1

SMILES: C[C@H](Cc1ccc(O[C@@H]2O[C@H](C(=O)O)[C@@H](O)[C@H](O)[C@H]2O)cc1)NC[C@H](O)c1cc(O)cc(O)c1 [(R,R)-Fen-PG]
- observed fraction of (R,R)-Fen-PG formation (isolated rat hepatocytes; hepatocytes): 0.28 ± 0.01
- observed fraction of (R,R)-Fen-PG formation (isolated rat enterocytes; enterocytes): 0.52 ± 0.01

SMILES: CC(Cc1ccc(O)cc1)NCC(O)c1cc(O)cc(O)c1 (stereo not drawn) [Fen, 5-[1-hydroxy-2-[[2-(4-hydroxyphenyl)-1-methylethyl]-amino]-ethyl]-1,3-benzenediol]
- Vss [1]: 1.3 L/kg
- clearance [1]: 72.8 mL/min/kg
- k10 [1]: 0.197 min⁻¹
- bioavailability after oral administration [2]: less than 1%

SMILES: CC(Cc1ccc(O)cc1)NCC(O)c1cc(O)cc(O)c1 [(S,S)-Fen]
- maximum contractile response (cardiomyocytes): no observed effect

SMILES: CC(Cc1ccc(O)cc1)NCC(O)c1cc(O)cc(O)c1 [(R,R)-Fen, (R,R)-Fenoterol]
- Dose (%) excreted into urine ([3]; after intravenous (R,R)-Fen 5 mg kg^-1, 0-6 h, individual animals): 2.24% and 7.75%
- Dose (%) excreted into urine ([3]; after intravenous (R,R)-Fen 5 mg kg^-1, 6-24 h): 1.70 ± 1.77%
- Dose (%) excreted into urine ([3]; after intravenous (R,R)-MFen 5 mg kg^-1, 0-6 h): 1.43 ± 0.21%
- Dose (%) excreted into urine ([3]; after intravenous (R,R)-MFen 5 mg kg^-1, 6-24 h): 0.17 ± 0.05%
- dose excreted in the cumulative 24-h urine collection ([3]; after intravenous administration of (R,R)-Fen): about 7%
- administered dose excreted, 24-h cumulative urinary excretion ([3]; after intravenous administration of (R,R)-MFen): about 2%
- Dose (%) excreted into urine ([4]; after oral (R,R)-Fen 25 mg kg^-1, 0-6 h, one animal): 0.17%
- Dose (%) excreted into urine ([4]; after oral (R,R)-Fen 25 mg kg^-1, 6-24 h): 0.16 ± 0.12%
- Dose (%) excreted into urine ([4]; after oral (R,R)-MFen 25 mg kg^-1, 0-6 h, individual animals): 0.05% and 0.04%
- Dose (%) excreted into urine ([4]; after oral (R,R)-MFen 25 mg kg^-1, 6-24 h): 0.02 ± 0.01%
- dose excreted in the cumulative 24-h urine collection ([4]; after oral administration of (R,R)-Fen): less than 1%
- administered dose excreted, cumulative urine ([4]; after oral administration of (R,R)-MFen): Trace amounts
- Tmax (intravenous 5 mg kg^-1, n=5): 5.0 min
- AUC0-inf. [8]: 36200 ng·min/mL
- C0 [8]: 2237 ng/mL
- Cl [8]: 146 mL/min/kg and 145.7 mL/min/kg
- T1/2λz [8]: 1.815 h
- VSS [8]: 8.2 L/kg
- area under the curve (AUC) (intravenous administration): 119 nmol·min/mL
- Cmax ([5]; oral 25 mg kg^-1): 6.9 ± 0.3 nM
- Tmax ([5]; oral 25 mg kg^-1): 2 h
- AUC0-inf. ([5]; oral 25 mg kg^-1, mean): 692 ng·min/mL and 691.7 ng·min/mL
- Cmax ([5]; oral 25 mg kg^-1, mean): 2.1 ng/mL
- T1/2λz ([5]; oral 25 mg kg^-1, mean): 2.808 h
- net exposure (AUC) ([5]; oral administration 25 mg kg^-1): 2.3 nmol·min/mL
- CL ([6]; calculated from model parameters, equation (5)): 170 (8%) ml min^-1kg^-1
- Vss ([6]; calculated from model parameters, equation (6)): 11.6 (15%) l kg^-1
- T1/2λz ([6]; calculated from model parameters, equations (7) and (8)): 96.4 (12%) min
- Vc ([6]; model parameter): 3.94 (20%) l kg^-1
- ka1 ([6]; model parameter): 0.004 (39%) min^-1
- ka2 ([6]; model parameter): 0.167 (79%) min^-1
- k10 [6, 9]: 0.043 min^-1 and 0.043 (15%) min^-1
- k12 [6, 9]: 0.023 (26%) min^-1
- k21 [6, 9]: 0.012 (18%) min^-1
- F ([6]; model parameter, systemic bioavailability): 0.473 (25%)
- maximum contractile response (cardiomyocytes): significant increase
- EC50 in the cardiomyocyte model (cardiomyocytes): reduced
- Clint, conversion to (R,R)-Fen-PG (isolated rat hepatocytes; isolated rat hepatocytes): 0.00148 ± 0.00032 mL/min/kg
- Clint, conversion to (R,R)-Fen-PG (isolated rat enterocytes; isolated rat enterocytes): 0.00079 ± 0.0002 mL/min/kg
- β2-AR coupled GS signaling [7]: selectively activates

SMILES: COc1ccc(CC(C)NCC(O)c2cc(O)cc(O)c2)cc1 [(R,R)-MFen, (R,R)-methoxyfenoterol]
- maximum contractile response (cardiomyocytes): significant increase
